Data set [1] deals with GST-PLCγ. Kind of data set: In vitro kinase assay of immunoprecipitated mutant αPDGFRs with exogenous substrate. In kind it is biochemical. The note with it: 292 immunoprecipitates, [32P]-γ ATP, 30° C., 5 min. Here is the method:
Mutant αPDGFRs were selectively immunoprecipitated with the 292 antibody, and samples representing 2×10^5 cells from 292 antibodies were subjected to an in vitro kinase assay. Immunoprecipitates were preincubated with 2 μg of GST protein for 10 min at 0° C., then 2 μg of Glutathione S-transferase fusion phospholipase C-gamma (GST-PLCγ, an exogenous substrate, 10 μCi of γ-[^32P] ATP (DuPont NEN Research Products, Boston, Mass.), and universal kinase buffer (UKB; 20 mM Pipes, pH 7.0, 10 mM MnCl2, 20 μg/ml aprotinin) were added. The samples were incubated at 30° C. for 5 min. The proteins were separated by 7.5% sodium dodecyl sulfate-polyacrylamide gel electrophoresis (SDS-PAGE), the gel was dried, and the radiolabeled protein was detected by autoradiography.

The subject of data set [2] is SHP-2. Kind of data set: Co-immunoprecipitation of SHP-2 with αPDGFR mutants in F cells. The data set is classed as cell-based, mouse. Particulars: 50 ng/ml PDGF-BB, 5 minutes. How it is done:
(§1) The ability of the αPDGFR mutants to undergo ligand dependent tyrosine phosphorylation and to associate with signaling enzymes was then tested. F cells expressing various αPDGFR mutants were grown to subconfluence and serum starved overnight. Cells were either left resting (−) or stimulated with 50 ng/ml PDGF-BB (+) for 5 minutes, and lysed. The αPDGFR was immunoprecipitated with αPDGFR antibody, as described above, and the resulting immunoprecipitates were resolved by 7.5% SDS-PAGE and transferred onto Immobilon. The segment of the blot containing the αPDGFR was first blotted with anti-phosphotyrosine antibodies, then stripped and reprobed with an anti-αPDGFR antibody. Portions of the membrane that contained the proteins of the appropriate molecular mass were immunoblotted for PLCγ, the regulatory subunit of PI3K (p85), or SHP-2. Crude rabbit anti-p85 antibody is from Dr. A. Toker (Beth Israel Hospital/Harvard Medical School, Boston, Mass.). The monoclonal antibodies against PLCγ and SHP-2 were purchased from Upstate Biotechnology Inc.

Data set [3] concerns F cells. Kind of data set: Collagen gel contraction assay of F cells expressing αPDGFR mutants. In kind it is cell-based, mouse. The note with it: PDGF-BB (50 ng/ml), 48 hours. How it is done: (§2) The contraction assay was based on a previously described reference, Skuta, G. et al. (1999) J. Biol. Chem. 274:30163, with the following modifications. Fα cells were suspended in 1.5 mg/ml of neutralized collagen I (Cohesion vitrogen 100, Palo Alto, Calif.) at a density of 10^6 cells/ml, and were transferred into the 24-well plate (Falcon, Franklyn Lakes, N.J.) that had been preincubated with phosphate-buffer saline (PBS) with 5 mg/ml of bovine serum albumin (BSA) overnight. The gel was solidified by incubating at 37° C. for 90 minutes, and then the well was flooded with DMEM+5 mg/ml of BSA supplemented with an amount of vitreous such that the final concentration of vitreous in the culture medium was 1, 5 or 20%. The gels were incubated at 37° C. with 5% CO2. The initial gel diameter was 15 mm. The media was replaced every 24 hours and the gel diameter was measured after 48 hours. The extent of contraction was calculated by subtracting the diameter of the well at 48 hours from the initial diameter (15 mm). Each experimental condition was assayed in triplicate, and at least three independent experiments were performed. Unpaired t-test was performed to detect statistic difference in contraction assay.
To determine the signaling pathways that drive contraction, cells expressing the αPDGFR mutants were subjected to the collagen gel contraction assay described above. Accordingly, F cells expressing the indicated αPDGFRs were subjected to the collagen gel assay in the presence of buffer, PDGF-BB (50 ng/ml), TGFβ1 (1 ng/ml), or FBS (10%). The data presented are the mean±standard deviation measured at the 48 hours time point. Each experimental condition was assayed in triplicate, and at least 3 independent experiments were performed.

The test system of data set [4] is rabbit eyes. Kind of data set: Rabbit PVR model: F cells expressing αPDGFR mutants injected into the vitreous. In kind it is in vivo. The note with it: up to 28 days after the surgery. How it is done:
PVR was induced in the rabbit eyes as previously described (Andrews, A. et al. (1999) Invest. Ophthalmol. Vis. Sci. 40:2683 and Nakagawa, M. et al. (1995) Invest. Ophthalmol. Vis. Sci. 36:2388). Briefly, gas vitrectomy was performed by injecting 0.4 ml of expanding perfluoropropane gas (C3F8) into the vitreous cavity 4 mm posterior to the corneal limbus under anesthetical condition. Three days later, the rabbits were anesthetized and the pupils were dilated. 0.1 ml DMEM containing 1×10^5 of RCFs expressing empty vector or αPDGFR mutant were injected into the vitreous cavity together with 0.1 ml of PRP using 30 G needle. Ten rabbits underwent surgery for each cell population expressing the empty vector or the truncated, E587K, T665M, D818N, or V859M αPDGFR mutants. One rabbit in the D818N group died just after the surgery, therefore the total number is 9 for this group. The retinal status was evaluated with an indirect ophthalmoscope fitted with a +30 D fundus lens at 1, 4, 7, 14, 21, and 28 days after the surgery. The PVR was graded from 0 through 5 according to the Fastenberg score. Fastenberg, D. M. et al. (1982) Am. J. Ophthalmol. 93:565. The grading is as follows: 0; no abnormality, 1; vitreous strand, 2; traction of the retina, 3; partial retinal detachment (less than 2 quadrant), 4; extended (more than 2 quadrant) but not total retinal detachment, 5; total retinal detachment. All surgeries were performed under aseptic conditions and pursuant to the regulation of the ARVO Statement for the Use of Animals in Ophthalmic and Vision Research. Only the left eye of each rabbit was used for the experiments.
An important component of PVR is the traction force that is generated when cells of the epiretinal membrane contract. To test if the signaling enzymes that are required for contraction in the in vitro assays also participate in PVR, the cells expressing the various αPDGFR mutants, described in the previous Examples, were assayed in a rabbit PVR model, described above. In this model, rabbits first undergo gas vitrectomy, and then cells are coinjected with […]. The formation of an epiretinal membrane and retinal detachment is observed in living animals over 28 days.
Briefly, PVR was induced by introducing F cells expressing the indicated αPDGFR into the vitreous of the rabbit eyes. The PVR score was evaluated up to 28 days after the surgery according to the classification described above. The mean value and standard error of the scores in a group were indicated. Each group contained 9 or 10 rabbits; the response to parental F cells was previously reported (Andrews et al., supra), and was included here for comparison purposes.

In data set [5] the test system is PLCγ. Kind of data set: Co-immunoprecipitation of PLCγ with αPDGFR mutants in F cells. The data set is classed as cell-based, mouse. Particulars: 50 ng/ml PDGF-BB, 5 minutes. How it is done: as §1
Data set [6] deals with FCX^2, Fα and Fβ cells. Kind of data set: Collagen gel contraction assay of cells with no PDGFRs, αPDGFR or βPDGFR. In kind it is cell-based, mouse. The note with it: 50 ng/ml PDGF-BB; 24, 48, 72 hours. How it is done:
as §2, with “The gels were incubated at 37° C. with 5% CO2. The initial gel diameter was 15 mm.” left out, “Each experimental condition was assayed in triplicate, and at least three independent experiments were performed. Unpaired t-test was performed to detect statistic difference in contraction assay.” left out
The experiments described in Example 9 (FIG. 7B) were repeated with cells that express the βPDGFR (Fβ) instead of the αPDGFR, or no PDGFRs (FCX^2). Contraction was scored at the 48 hours time point. […]
To more directly test whether TGFβ could moderate contraction of fibroblasts via the αPDGFR, the response of the three cell lines to purified TGFβ was examined. […] The gel diameter was measured after 24, 48, or 72 hours, and the media was replaced every day.

The target in data set [7] is T1, αPDGFR (Homo sapiens, UniProt P16234).
T1 construct: expressed in transfected cells; host or cells: F cells (SV-40 immortalized mouse embryo fibroblasts lacking both PDGFRs), giving Fα
Kind of data set: Tyrosine phosphorylation of the αPDGFR in TGFβ- or PDGF-treated F cells. In kind it is cell-based. The note with it: Fα cells; 50 ng/ml PDGF-BB 5 minutes or 1 ng/ml TGFβ1 5 minutes to 8 hours. How it is done:
To show the effect of TGFβ on αPDGFR, the tyrosine phosphorylation state of the αPDGFR was assayed in TGFβ-treated cells. The F cells with or without PDGFR were grown to 80% confluent and then starved with DMEM containing 1% FBS for 20 hours. Cells were exposed at 37° C. for 5 minutes to either 50 ng/ml of PDGF-BB; with 1 ng/ml of TGFβ1 for 5 minutes, 1 hour, 2 hours, 4 hours, 6 hours or 8 hours; or were left unstimulated. After treatment the cells were washed twice with H/S (20 mM Hepes, pH 7.4, 150 mM NaCl) and then lysed in EB (10 mM Tris-HCl, pH 7.4, 5 mM EDTA, 50 mM NaCl, 50 mM NaF, 1% Triton-X 100, 0.1% BSA, 20 μg/ml aprotinin, 2 mM Na3VO4, 1 mM phenylmethylsulfonyl fluoride; PMSF). Lysates were centrifuged for 15 minutes at 13,000×g, the pellet was discarded and the soluble fraction was used as the total cell lysate. The protein concentration was measured using protein assay kit (Pierce, Rockfield, Ill.) following the manufacture's instructions.
Receptors were immunoprecipitated from the soluble fraction with the 27P antibody (described above). Immune complex was bound to formalin-fixed membranes of Staphylococcus aureus, spun through an EB sucrose gradient, and washed twice with EB, then with PAN (10 mM Pipes, pH 7.0, 100 mM NaCl, 1% aprotinin)+0.5% Nonidet P-40 (NP-40), and finally with PAN. The samples were resuspended in PAN before using for kinase assay or western blotting. […]

“Also recorded” adds a separate entry of the source.

These results are taken from patent US6667173B2, “Nucleic acids encoding platelet derived growth factor-alpha receptors” (The Schepens Eye Research Institute, priority 2000, dated 2003).

T1 sequence (P16234 24-1089): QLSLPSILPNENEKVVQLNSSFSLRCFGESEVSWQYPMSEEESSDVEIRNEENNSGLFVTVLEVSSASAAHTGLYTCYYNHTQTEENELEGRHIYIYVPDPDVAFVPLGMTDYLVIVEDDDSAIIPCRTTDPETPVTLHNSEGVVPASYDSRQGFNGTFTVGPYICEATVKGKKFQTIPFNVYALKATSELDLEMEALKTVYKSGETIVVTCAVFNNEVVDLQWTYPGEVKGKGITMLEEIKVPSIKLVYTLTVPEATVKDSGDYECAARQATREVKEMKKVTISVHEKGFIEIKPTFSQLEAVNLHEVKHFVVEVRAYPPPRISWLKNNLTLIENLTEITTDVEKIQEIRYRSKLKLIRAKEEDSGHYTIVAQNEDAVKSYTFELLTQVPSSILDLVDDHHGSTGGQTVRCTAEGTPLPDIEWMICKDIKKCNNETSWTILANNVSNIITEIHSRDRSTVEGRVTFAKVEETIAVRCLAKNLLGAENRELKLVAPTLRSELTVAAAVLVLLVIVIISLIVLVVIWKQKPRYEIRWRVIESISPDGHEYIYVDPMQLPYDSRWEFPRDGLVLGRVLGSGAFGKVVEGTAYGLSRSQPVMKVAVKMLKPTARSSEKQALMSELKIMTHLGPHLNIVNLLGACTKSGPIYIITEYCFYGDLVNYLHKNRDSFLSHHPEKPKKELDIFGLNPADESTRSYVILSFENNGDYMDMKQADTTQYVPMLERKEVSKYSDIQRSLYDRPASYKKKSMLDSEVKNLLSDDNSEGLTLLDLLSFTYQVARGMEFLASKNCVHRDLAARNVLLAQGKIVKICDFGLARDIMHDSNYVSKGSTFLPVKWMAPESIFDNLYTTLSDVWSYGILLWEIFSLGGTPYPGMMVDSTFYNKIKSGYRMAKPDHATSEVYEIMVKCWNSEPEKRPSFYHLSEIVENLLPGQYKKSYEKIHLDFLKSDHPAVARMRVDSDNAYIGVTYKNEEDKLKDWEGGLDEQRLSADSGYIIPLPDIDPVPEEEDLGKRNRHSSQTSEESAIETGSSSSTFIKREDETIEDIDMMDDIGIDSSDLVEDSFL

Turning to “E587K: human αPDGFR point mutant, glutamic acid at position 587 changed to lysine; SEQ ID NO: 4”, the “kinase activity towards exogenous substrate GST-PLCγ” value in data set [1] is “comparable to the WT receptor”.
Take “F720: αPDGFR mutant, Tyr to Phe substitution at 720”: the “recruitment of SHP-2 (Properties)” value in data set [2] is given as “failed to efficiently associate; also recorded: Fails to recruit SHP-2”. Moreover, the PDGF-dependent contraction entry in data set [3] is reported as “somewhat reduced response”. Further, the “potential to induce PVR (PVR score)” value in data set [4] was “induced PVR similarly to the WT receptor-expressing cells”.
Take “F1018: αPDGFR mutant, Tyr to Phe substitution at 1018”: the “recruitment or activation of PLCγ (Properties)” value in data set [5] is on record as “failed to efficiently associate; also recorded: Fails to recruit or activate”. For the same substance, the PDGF-dependent contraction result in data set [3] is “severely compromised contraction”. Further, the “potential to induce PVR (PVR score)” value in data set [4] was “significantly reduced”.
For PDGF, in data set [6], the PDGF-induced contraction result was “triggered the same extent of contraction of the Fα and Fβ cells”. The “tyrosine phosphorylation of the αPDGFR” value in data set [7] is “greatly increased the receptor's phosphotyrosine content”.
Take “T665M: human αPDGFR point mutant, threonine at position 665 changed to methionine; SEQ ID NO: 6”: in data set [1], the “kinase activity towards exogenous substrate GST-PLCγ” value is “more active than the WT receptor”.
